Measurements taken from PubChem BioAssay (NCI).
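Where inhibition never reached the appropriate level, the endpoint shown equals the highest concentration tested. Otherwise, values were interpolated linearly from a five-concentration, 48-hour dose response in 96-well plates. The concentration for full growth arrest is given as TGI.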

Experiments:
Test in all cases: DTP human tumour cell line panel, 48 h
OVCAR-8 ovarian = system: OVCAR-8 ovarian
HCC-2998 colon = system: HCC-2998 colon
SF-295 CNS = system: SF-295 CNS
CCRF-CEM leukemia = system: CCRF-CEM leukemia
MDA-N = system: MDA-N
RXF 393 renal = system: RXF 393 renal
SK-MEL-2 melanoma = system: SK-MEL-2 melanoma
DU-145 prostate = system: DU-145 prostate
HCT-116 colon = system: HCT-116 colon
BT-549 breast = system: BT-549 breast
MDA-MB-231 breast = system: MDA-MB-231 breast
MCF7 breast = system: MCF7 breast
KM12 colon = system: KM12 colon
OVCAR-5 ovarian = system: OVCAR-5 ovarian
786-0 renal = system: 786-0 renal
UACC-62 melanoma = system: UACC-62 melanoma
U251 CNS = system: U251 CNS
RPMI-8226 leukemia = system: RPMI-8226 leukemia
CAKI-1 renal = system: CAKI-1 renal
M14 melanoma = system: M14 melanoma
NCI-H23 lung = system: NCI-H23 lung
UO-31 renal = system: UO-31 renal
EKVX NSCLC = system: EKVX NSCLC
MALME-3M melanoma = system: MALME-3M melanoma
SK-MEL-5 melanoma = system: SK-MEL-5 melanoma
SK-MEL-28 melanoma = system: SK-MEL-28 melanoma
HL-60(TB) leukemia = system: HL-60(TB) leukemia
HOP-62 NSCLC = system: HOP-62 NSCLC
SF-268 CNS = system: SF-268 CNS
SNB-19 CNS = system: SNB-19 CNS
SF-539 CNS = system: SF-539 CNS
OVCAR-3 ovarian = system: OVCAR-3 ovarian
TK-10 renal = system: TK-10 renal
LOX IMVI melanoma = system: LOX IMVI melanoma
HS 578T breast = system: HS 578T breast
HCT-15 colon = system: HCT-15 colon
COLO 205 colon = system: COLO 205 colon
PC-3 prostate = system: PC-3 prostate
SK-OV-3 ovarian = system: SK-OV-3 ovarian
OVCAR-4 ovarian = system: OVCAR-4 ovarian
T-47D breast = system: T-47D breast
A498 renal = system: A498 renal
K-562 leukemia = system: K-562 leukemia
NCI-H522 lung = system: NCI-H522 lung
SW-620 colon = system: SW-620 colon
UACC-257 melanoma = system: UACC-257 melanoma
NCI-H460 lung = system: NCI-H460 lung
SN12C renal = system: SN12C renal
SR leukemia = system: SR leukemia
IGROV1 ovarian = system: IGROV1 ovarian
MDA-MB-435 = system: MDA-MB-435
MOLT-4 leukemia = system: MOLT-4 leukemia
HT29 colon = system: HT29 colon
NCI/ADR-RES ovarian = system: NCI/ADR-RES ovarian
A549 NSCLC = system: A549 NSCLC
HOP-92 NSCLC = system: HOP-92 NSCLC
ACHN renal = system: ACHN renal
HOP-18 NSCLC = system: HOP-18 NSCLC
XF 498 CNS = system: XF 498 CNS
NCI-H226 lung = system: NCI-H226 lung
SNB-75 CNS = system: SNB-75 CNS
KM20L2 colon = system: KM20L2 colon
SNB-78 CNS = system: SNB-78 CNS
DMS 273 small cell lung = system: DMS 273 small cell lung
DLD-1 colon = system: DLD-1 colon
M19-MEL melanoma = system: M19-MEL melanoma

With `COC(=O)C([C@H](NC1(c2ccccc2)c2ccccc2-c2ccccc21)C(=O)OC)N(NC(=O)OCc1ccccc1)C(=O)OCc1ccccc1` (mixture of isomers) the TGI (OVCAR-8 ovarian) was over 100 µM, the TGI (HCC-2998 colon) was over 100 µM and the TGI (SF-295 CNS) was over 100 µM. The TGI (CCRF-CEM leukemia) was over 100 µM, the TGI (MDA-N) was over 100 µM and the TGI (RXF 393 renal) was over 100 µM. It also gave a TGI (SK-MEL-2 melanoma) of over 100 µM, a TGI (DU-145 prostate) of over 100 µM and a TGI (HCT-116 colon) of over 100 µM. It also gave a TGI (BT-549 breast) of over 100 µM, a TGI (MDA-MB-231 breast) of over 100 µM and a TGI (MCF7 breast) of over 100 µM. For the same compound, the TGI (KM12 colon) was over 100 µM, the TGI (OVCAR-5 ovarian) was over 100 µM and the TGI (786-0 renal) was over 100 µM. For the same compound, the TGI (UACC-62 melanoma) was over 100 µM, the TGI (U251 CNS) was over 100 µM and the TGI (RPMI-8226 leukemia) was over 100 µM. It also gave a TGI (CAKI-1 renal) of over 100 µM, a TGI (M14 melanoma) of over 100 µM and a TGI (NCI-H23 lung) of over 100 µM. It also gave a TGI (UO-31 renal) of over 100 µM, a TGI (EKVX NSCLC) of over 100 µM and a TGI (MALME-3M melanoma) of over 100 µM. It also gave a TGI (SK-MEL-5 melanoma) of over 100 µM, a TGI (SK-MEL-28 melanoma) of over 100 µM and a TGI (HL-60(TB) leukemia) of over 100 µM. For the same compound, the TGI (HOP-62 NSCLC) was over 100 µM, the TGI (SF-268 CNS) was over 100 µM and the TGI (SNB-19 CNS) was over 100 µM. It also gave a TGI (SF-539 CNS) of over 100 µM, a TGI (OVCAR-3 ovarian) of over 100 µM and a TGI (TK-10 renal) of over 100 µM. For the same compound, the TGI (LOX IMVI melanoma) was over 100 µM, the TGI (HS 578T breast) was over 100 µM and the TGI (HCT-15 colon) was over 100 µM. It also gave a TGI (COLO 205 colon) of over 100 µM, a TGI (PC-3 prostate) of over 100 µM and a TGI (SK-OV-3 ovarian) of over 100 µM. The TGI (OVCAR-4 ovarian) was over 100 µM, the TGI (T-47D breast) was over 100 µM and the TGI (A498 renal) was over 100 µM. The TGI (K-562 leukemia) was over 100 µM, the TGI (NCI-H522 lung) was over 100 µM and the TGI (SW-620 colon) was over 100 µM. For the same compound, the TGI (UACC-257 melanoma) was over 100 µM, the TGI (NCI-H460 lung) was over 100 µM and the TGI (SN12C renal) was over 100 µM. For the same compound, the TGI (SR leukemia) was over 100 µM, the TGI (IGROV1 ovarian) was over 100 µM and the TGI (MDA-MB-435) was over 100 µM. It also gave a TGI (MOLT-4 leukemia) of over 100 µM, a TGI (HT29 colon) of over 100 µM and a TGI (NCI/ADR-RES ovarian) of over 100 µM. For the same compound, the TGI (A549 NSCLC) was over 100 µM, the TGI (HOP-92 NSCLC) was over 100 µM and the TGI (ACHN renal) was over 100 µM.

`C1=C2/CC[C@H](Sc3ccccc3)C2C2(CCCCC/1)OCCO2` (some centres not stated) gave a TGI (OVCAR-8 ovarian) of over 100 µM, a TGI (HCC-2998 colon) of 67.9 µM and a TGI (SF-295 CNS) of over 100 µM. For the same compound, the TGI (CCRF-CEM leukemia) was over 100 µM, the TGI (RXF 393 renal) was 43.4 µM and the TGI (SK-MEL-2 melanoma) was 32.7 µM. The TGI (HCT-116 colon) was 37.1 µM, the TGI (HOP-18 NSCLC) was over 100 µM and the TGI (KM12 colon) was 94 µM. The TGI (XF 498 CNS) was 58.6 µM, the TGI (786-0 renal) was over 100 µM and the TGI (UACC-62 melanoma) was 64.5 µM. It also gave a TGI (U251 CNS) of over 100 µM, a TGI (RPMI-8226 leukemia) of 73.7 µM and a TGI (NCI-H226 lung) of 60.4 µM. It also gave a TGI (NCI-H23 lung) of 63.3 µM, a TGI (EKVX NSCLC) of over 100 µM and a TGI (MALME-3M melanoma) of 55.2 µM. For the same compound, the TGI (SNB-75 CNS) was 88.2 µM, the TGI (SK-MEL-28 melanoma) was over 100 µM and the TGI (HL-60(TB) leukemia) was over 100 µM. It also gave a TGI (HOP-62 NSCLC) of 58.2 µM, a TGI (SF-268 CNS) of over 100 µM and a TGI (SNB-19 CNS) of over 100 µM. The TGI (SF-539 CNS) was over 100 µM, the TGI (OVCAR-3 ovarian) was 72.1 µM and the TGI (TK-10 renal) was over 100 µM. For the same compound, the TGI (LOX IMVI melanoma) was 28.9 µM, the TGI (KM20L2 colon) was 37.1 µM and the TGI (COLO 205 colon) was 37.8 µM. For the same compound, the TGI (K-562 leukemia) was over 100 µM, the TGI (SW-620 colon) was over 100 µM and the TGI (UACC-257 melanoma) was 45.2 µM. The TGI (NCI-H460 lung) was 73.9 µM, the TGI (SN12C renal) was over 100 µM and the TGI (SNB-78 CNS) was over 100 µM. The TGI (SR leukemia) was over 100 µM, the TGI (DMS 273 small cell lung) was over 100 µM and the TGI (IGROV1 ovarian) was over 100 µM. The TGI (MOLT-4 leukemia) was over 100 µM, the TGI (HT29 colon) was 28 µM and the TGI (HOP-92 NSCLC) was 29.6 µM. For the same compound, the TGI (ACHN renal) was 85.9 µM, the TGI (DLD-1 colon) was over 100 µM and the TGI (M19-MEL melanoma) was 33.5 µM.
